The nature of series [1]: Protein binding, mouse. The format is in vitro ADME.
Series [2] can be described thus: Intrinsic clearance, human. In kind it is in vitro ADME. To be noted: human.
Series [3] can be described thus: Protein binding, human. In kind it is in vitro ADME.
Series [4] concerns BMP-responsive C2C12 mouse myoblast cells stimulated with BMP4. The series is described as follows: BMP4 cell assay (Id1 promoter-firefly luciferase reporter). In kind it is cell-based. The following applies: Mus musculus, C2C12, C2C12 cells, BMP4 50 ng/mL, overnight. As for the experimental part:
The BMP4 cell assay were carried out briefly as follows. Stably transfected BMP-responsive C2C12 mouse myoblast cells (containing the Idl promoter-firefly luciferase reporter) were seeded in 96-well plates and incubated overnight with the compounds and BMP4 (50 ng/mL). The cells were then lysed, and cell extracts were then subjected to the firefly luciferase assay using Steady-Glo luciferase assay kit (Promega). The results were normalized to cell titers, as measured using Cell Titer-Glo luminescence assay (Promega). […] Relative activity was quantified by the ratio of firefly to Renilla luciferase activities using the dual luciferase assay kit (Promega).
A general note: A reporter such as luciferase makes a cellular process visible.

Series [5] is described as follows: Intrinsic clearance, mouse. In kind it is in vitro ADME. To be noted: mouse.
Series [6] concerns the target ALK1/ACVRL1 (Homo sapiens, UniProt P37023). The series is described as follows: Kinase assay (33P-ATP filter-binding), ALK1. The following applies: read-out: Kinase Selectivity ALK1/ACVRL1. The format is biochemical. As for the experimental part:
(§1) The kinase assays were carried out briefly as follows. Substrate was prepared in Base Reaction Buffer (20 mM Hepes (pH 7.5), 10 mM MgCl2, 1 mM EGTA, 0.02% Brij35, 0.02 mg/ml BSA, 0.1 mM Na3VO4, 2 mM DTT, 1% DMSO). The indicated kinases was delivered into the substrate solution and allowed to gently mix. Next, the specific compound was delivered in DMSO into the kinase mixture by Acoustic technology (Echo550; nanoliter range), and allowed to incubate for 20 minutes at room temperature. Next, ^33P-ATP was delivered into the reaction mixture to initiate the reaction and allowed to incubate at room temperature. After 2 hours, the reactions were spotted onto P81 ion exchange paper and the kinase activity is detected by the filter-binding method.

Series [7] has as its target T1, ALK2 (R206H) (Homo sapiens, UniProt Q04771, R206H).
T1 sequence (Q04771 21-509 R206H): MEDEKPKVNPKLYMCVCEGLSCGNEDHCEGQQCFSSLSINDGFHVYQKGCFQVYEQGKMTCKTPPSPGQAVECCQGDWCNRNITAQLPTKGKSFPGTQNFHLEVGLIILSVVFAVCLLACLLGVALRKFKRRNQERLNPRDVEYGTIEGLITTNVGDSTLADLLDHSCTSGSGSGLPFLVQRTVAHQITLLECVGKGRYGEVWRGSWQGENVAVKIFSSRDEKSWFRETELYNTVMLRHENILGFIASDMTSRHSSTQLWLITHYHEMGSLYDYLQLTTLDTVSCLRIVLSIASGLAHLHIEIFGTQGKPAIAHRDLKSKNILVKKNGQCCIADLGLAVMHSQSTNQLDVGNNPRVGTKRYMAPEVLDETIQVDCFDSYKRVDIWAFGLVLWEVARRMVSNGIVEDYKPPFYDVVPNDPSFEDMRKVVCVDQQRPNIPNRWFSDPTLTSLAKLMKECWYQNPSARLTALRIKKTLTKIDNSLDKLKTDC
The series is described as follows: Kinase assay (33P-ATP filter-binding), ALK2 R206H. In kind it is biochemical. The following applies: R206H mutant, 20 mM; read-out: Kinase Selectivity ALK2 (R206H, 20 mM). On the procedure:
as §1

The target in series [8] is T2, ALK2 (Q207D) (Homo sapiens, UniProt Q04771, Q207D).
T2 sequence (Q04771 21-509 Q207D): T1 sequence (Q04771 21-509 R206H) with H186R, Q187D
The series is described as follows: Kinase assay (33P-ATP filter-binding), ALK2 Q207D. In kind it is biochemical. The following applies: Q207D mutant, 20 mM; read-out: Kinase Selectivity ALK2 (Q207D, 20 mM). As for the experimental part: as §1

Series [9] addresses T3, ALK2/ACVR1 (Homo sapiens, UniProt Q04771).
T3 sequence (Q04771 21-509): T1 sequence (Q04771 21-509 R206H) with H186R
As to the kind of experiment: Kinase assay (33P-ATP filter-binding), ALK2. The format is biochemical. The following applies: 20 mM; read-out: Kinase Selectivity ALK2/ACVR1 (20 mM). On the procedure: as §1

The target of series [10] is ALK3/BMPR1A (Homo sapiens, UniProt P36894). The series is described as follows: Kinase assay (33P-ATP filter-binding), ALK3. In kind it is biochemical. The following applies: 1 mM; read-out: Kinase Selectivity ALK3/BMPR1A (1 mM). As for the experimental part:
as §1

[11] abbreviates: CL-Hep, value in parentheses, read-out: Intrinsic Clearance Human (CL-Hep).
The mark [12] stands for this setting: read-out: Intrinsic Clearance Human.
[13] abbreviates: CL-Hep, value in parentheses, read-out: Intrinsic Clearance Mouse (CL-Hep).
The mark [14] stands for this setting: read-out: Intrinsic Clearance Mouse.

Changes are numbered by the printed parent chain.

The text below walks through data of US10745400B2, “Inhibition of BMP signaling, compounds, compositions and uses thereof” (Vanderbilt University, priority 2018, dated 2020).

Sequence of ALK1/ACVRL1 (P37023 22-503): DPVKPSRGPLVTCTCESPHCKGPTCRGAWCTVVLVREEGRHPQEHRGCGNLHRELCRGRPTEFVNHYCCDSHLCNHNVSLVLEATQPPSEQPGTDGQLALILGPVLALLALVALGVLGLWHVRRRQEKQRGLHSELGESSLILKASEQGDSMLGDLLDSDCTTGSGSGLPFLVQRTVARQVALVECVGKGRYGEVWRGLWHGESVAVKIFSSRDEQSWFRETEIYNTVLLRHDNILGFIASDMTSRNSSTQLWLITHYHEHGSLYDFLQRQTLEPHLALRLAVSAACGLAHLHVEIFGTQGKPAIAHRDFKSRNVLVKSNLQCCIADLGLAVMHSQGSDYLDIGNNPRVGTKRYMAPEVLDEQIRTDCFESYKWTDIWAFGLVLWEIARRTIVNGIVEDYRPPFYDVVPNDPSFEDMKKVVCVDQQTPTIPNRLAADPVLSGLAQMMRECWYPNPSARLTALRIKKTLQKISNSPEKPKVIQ
Sequence of ALK3/BMPR1A (P36894 24-532): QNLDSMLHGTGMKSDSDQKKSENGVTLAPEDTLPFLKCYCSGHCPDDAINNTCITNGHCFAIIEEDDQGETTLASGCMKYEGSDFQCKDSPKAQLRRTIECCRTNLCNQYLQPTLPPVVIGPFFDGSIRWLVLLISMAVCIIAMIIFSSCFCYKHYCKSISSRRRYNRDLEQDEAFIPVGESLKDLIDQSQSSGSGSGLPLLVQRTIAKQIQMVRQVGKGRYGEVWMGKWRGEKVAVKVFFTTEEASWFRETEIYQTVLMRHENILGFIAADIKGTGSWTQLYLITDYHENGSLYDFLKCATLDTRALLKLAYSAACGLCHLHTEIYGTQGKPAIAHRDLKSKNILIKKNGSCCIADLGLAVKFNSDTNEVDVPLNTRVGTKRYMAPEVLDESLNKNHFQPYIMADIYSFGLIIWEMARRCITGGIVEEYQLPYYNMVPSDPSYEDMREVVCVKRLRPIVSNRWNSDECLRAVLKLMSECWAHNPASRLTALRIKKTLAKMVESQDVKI

For `Cc1cc(-c2cnc3cc(-c4ccc(C5CNCCN5)cc4)ccn23)c2ccccc2n1` (centres unmarked) [Compound 12], the “Protein Binding (% Free) Mouse” value in series [1] was 4.94 % Free. Besides, the CLint scaled in series [2] (setting [11]) was less than 10.7 mL/min/kg; in series [2] (setting [12]) it was less than 23.1 mL/min/kg; in series [5] (setting [13]), less than 32.9 mL/min/kg; in [5] (setting [14]) it was less than 49.5 mL/min/kg. Also, the “Protein Binding (% Free) Human” value in series [3] was found to be 13.6 % Free. The molecule further showed an IC50 in series [4] of 13.5 nM.
For the molecule `Cc1cc(-c2cnc3cc(-c4ccc(C5COC(C)CN5)cc4)ccn23)c2cc(F)ccc2n1` (centres unmarked) [Compound 15], the “Protein Binding (% Free) Mouse” value in [1] came out at 1.01 % Free. For the same molecule, the CLint scaled is 15.7 mL/min/kg in series [2] (setting [11]), 74 mL/min/kg in series [2] (setting [12]), 38.1 mL/min/kg in series [5] (setting [13]) and 66.3 mL/min/kg in [5] (setting [14]). Further, the IC50 in series [6] is 34.1 nM; in series [7], less than 5.1 nM; in series [8] it was less than 5.1 nM; in series [9], less than 5.1 nM; in series [10] it was less than 5.1 nM. The “Protein Binding (% Free) Human” value in [3] is on record as 1.26 % Free.
Regarding `Cc1cc(-c2cnc3cc(-c4ccc(C5COC(C)CN5)cc4)ccn23)c2cc(F)cc(F)c2n1` (centres unmarked) [Compound 19], the “Protein Binding (% Free) Mouse” value in series [1] amounted to 3.15 % Free. The CLint scaled was determined as 15.9 mL/min/kg in series [2] (setting [11]), 77.2 mL/min/kg in series [2] (setting [12]), 53.3 mL/min/kg in series [5] (setting [13]) and 131 mL/min/kg in [5] (setting [14]). The IC50 in series [6] was 14.1 nM; in [7], less than 5.1 nM; in series [8] it was less than 5.1 nM; in series [9], less than 5.1 nM; in series [10], less than 5.1 nM. Besides, the “Protein Binding (% Free) Human” value in [3] is given as 3.74 % Free.
As for `Cc1cc(-c2cnc3cc(-c4ccc(C5COCC(C)N5)cc4)ccn23)c2cc(F)ccc2n1` (centres unmarked) [Compound 20], the “Protein Binding (% Free) Mouse” value in series [1] was 1.36 % Free. The CLint scaled in [2] (setting [11]) is 17.1 mL/min/kg; in [2] (setting [12]), 117 mL/min/kg; in series [5] (setting [13]), 50.2 mL/min/kg; in series [5] (setting [14]), 114 mL/min/kg. In addition, the IC50 was 23 nM in series [6]; less than 5.1 nM in [7]; less than 5.1 nM in series [8]; less than 5.1 nM in series [9]; less than 5.1 nM in [10]. Also, in series [3], the “Protein Binding (% Free) Human” value is 4.01 % Free.
Take `Cc1cc(-c2cnc3cc(N4CC5(CCNCC5)C4)ccn23)c2cc(F)cc(F)c2n1` [Compound 24]: the “Protein Binding (% Free) Mouse” value in [1] was found to be 1.08 % Free. Further, the CLint scaled in series [2] (setting [11]) was 14 mL/min/kg; in [2] (setting [12]) it was 46.3 mL/min/kg; in series [5] (setting [13]), less than 32.9 mL/min/kg; in series [5] (setting [14]), less than 49.5 mL/min/kg. Further, the IC50 stood at 1250 nM in series [6]; 58.3 nM in series [7]; 129 nM in series [8]; 57.8 nM in [9]; 5.2 nM in [10]. Besides, the “Protein Binding (% Free) Human” value in series [3] amounted to 0.75 % Free.
Consider `Cc1cc(-c2cnc3cc(-c4ccc(N5CCC6(CCCCN6)CC5)cc4)ccn23)c2cc(F)cc(F)c2n1` [Compound 25], for which the “Protein Binding (% Free) Mouse” value in series [1] is reported as 0.55 % Free. Further, the CLint scaled in series [2] (setting [11]) amounted to 14 mL/min/kg; in series [2] (setting [12]) it was 46.3 mL/min/kg; in series [5] (setting [13]), 97.8 mL/min/kg; in [5] (setting [14]) it was 198 mL/min/kg. Moreover, the IC50 amounted to 777 nM in [6]; 258 nM in series [7]; 170 nM in series [8]; 55.5 nM in [9]; 54.7 nM in [10]. Also, the “Protein Binding (% Free) Human” value in series [3] was found to be 1.43 % Free.
`Cc1cc(-c2cnc3cc(-c4ccc(N5CCNC(C)(C)C5)cc4)ccn23)c2cc(F)cc(F)c2n1` [Compound 26]: in series [1], the “Protein Binding (% Free) Mouse” value is 1.03 % Free. Also, the CLint scaled in series [2] (setting [11]) is less than 10.7 mL/min/kg; in series [2] (setting [12]), less than 23.1 mL/min/kg; in series [5] (setting [13]) it was 47.1 mL/min/kg; in series [5] (setting [14]), 99 mL/min/kg. Moreover, the IC50 in series [6] is 330 nM; in series [7] it was 79.3 nM; in series [8], 69.7 nM; in series [9] it was 14.9 nM; in series [10] it was 5.7 nM. The “Protein Binding (% Free) Human” value in [3] is given as 0.61 % Free.
Regarding `c1cnc2scc(-c3cnc4cc(-c5ccc(C6CNCCN6)cc5)ccn34)c2c1` (centres unmarked) [Compound 31], the “Protein Binding (% Free) Mouse” value in [1] is given as 6.8 % Free. Also, the CLint scaled in series [2] (setting [11]) was less than 11 mL/min/kg; in [2] (setting [12]), less than 23.1 mL/min/kg; in [5] (setting [13]), 33.6 mL/min/kg; in series [5] (setting [14]), 53.5 mL/min/kg. Moreover, the IC50 is 30.7 nM in series [6]; 20.6 nM in series [7]; less than 5.1 nM in series [8]; 20.1 nM in series [9]; 21.2 nM in series [10]. In [3], the “Protein Binding (% Free) Human” value worked out at 16.2 % Free.
For `c1cnc2c(-c3cnc4cc(-c5ccc(C6CNCCN6)cc5)ccn34)ccnc2c1` (centres unmarked) [Compound 34], the “Protein Binding (% Free) Mouse” value in series [1] was 21.2 % Free. Further, the CLint scaled in [2] (setting [11]) is 12.3 mL/min/kg; in [2] (setting [12]), 29.6 mL/min/kg; in [5] (setting [13]), less than 31.9 mL/min/kg; in series [5] (setting [14]), less than 49.5 mL/min/kg. In addition, the IC50 in series [6] is 16.9 nM; in series [7], 7.5 nM; in series [8], less than 5.1 nM; in series [9], 6.2 nM; in series [10] it was less than 5.1 nM. In addition, the “Protein Binding (% Free) Human” value in series [3] was determined as 39.4 % Free.
